Experimental data published in ChEMBL document CHEMBL3885861, “Open TG-GATES”.

Organism: Rattus norvegicus
Test: Open TG-GATES - Regimen: Single
Format: toxicity, organism-based, Sprague-Dawley
Parameters: regimen Single, gender Male, age 6 weeks
Conditions: in vivo, po, 100 mg/kg, route gavage, dose level Low; for APTT / Bas / Eos / Fbg / Hb / Ht / Lym / MCH / MCHC / MCV / Mono / Neu / PT / Plat / RBC / Ret / WBC: tissue Blood; for KIDNEY_L / KIDNEY_R / KIDNEY_TOTAL: tissue Kidney; for LIVER: tissue Liver; for A/G / ALP / ALT / AST / BUN / CRE / Ca / Cl / DBIL / GLC / IP / K / LDH / Na / PL / RALB / TBIL / TC / TG / TP / gamma-GTP: tissue Plasma

## C[C@H]1O[C@H](O[C@H]2[C@H](O)[C@@H](O)[C@@H](O[C@H]3[C@H](O)[C@@H](O)C(O)O[C@@H]3CO)O[C@@H]2CO)[C@H](O)[C@@H](O)[C@@H]1N[C@H]1C=C(CO)[C@@H](O)[C@H](O)[C@H]1O (some centres not stated) [ACARBOSE]
3 h
  TERMINAL_BW: 197.7 g
  APTT: 16.7 s
  Bas: 0.2%
  Eos: 0.8%
  Fbg: 274.6 mg/dL
  Hb: 13.5 g/dL
  Ht: 41.3%
  Lym: 78.4%
  MCH: 21.1 pg
  MCHC: 32.6%
  MCV: 64.8 fL
  Mono: 2%
  Neu: 17.8%
  PT: 13.6 s
  Plat: 118.3 x10_4/uL
  RBC: 639 x10_4/ul
  Ret: 8.2%
  WBC: 89.6 x10_2/uL
  KIDNEY_L: 0.9 g
  KIDNEY_R: 0.9 g
  KIDNEY_TOTAL: 1.8 g
  LIVER: 8.5 g
  A/G: 0.9
  ALP: 1409.6 IU/L
  ALT: 39.2 IU/L
  AST: 77.6 IU/L
  BUN: 10.4 mg/dL
  CRE: 0.2 mg/dL
  Ca: 10.7 mg/dL
  Cl: 104.6 meq/L
  DBIL: 0.004 mg/dL
  GLC: 172.2 mg/dL
  IP: 9.9 mg/dL
  K: 3.8 meq/L
  LDH: 60 IU/L
  Na: 141.2 meq/L
  PL: 136.4 mg/dL
  RALB: 2.5 g/dL
  TBIL: 0.062 mg/dL
  TC: 75.4 mg/dL
  TG: 39.2 mg/dL
  TP: 5.1 g/dL
  gamma-GTP: 1 IU/L
6 h
  TERMINAL_BW: 198.1 g
  APTT: 16 s
  Bas: 0%
  Eos: 1%
  Fbg: 307.2 mg/dL
  Hb: 13.4 g/dL
  Ht: 41.5%
  Lym: 78.2%
  MCH: 21 pg
  MCHC: 32.3%
  MCV: 65.1 fL
  Mono: 2.2%
  Neu: 17.8%
  PT: 13.3 s
  Plat: 117.7 x10_4/uL
  RBC: 636.8 x10_4/ul
  Ret: 8.8%
  WBC: 81.3 x10_2/uL
  KIDNEY_L: 0.9 g
  KIDNEY_R: 0.9 g
  KIDNEY_TOTAL: 1.9 g
  LIVER: 8.3 g
  A/G: 0.9
  ALP: 1322 IU/L
  ALT: 34.6 IU/L
  AST: 67.8 IU/L
  BUN: 8.4 mg/dL
  CRE: 0.2 mg/dL
  Ca: 10.8 mg/dL
  Cl: 104.2 meq/L
  DBIL: 0.002 mg/dL
  GLC: 168.2 mg/dL
  IP: 10.2 mg/dL
  K: 3.8 meq/L
  LDH: 58.4 IU/L
  Na: 141 meq/L
  PL: 133.8 mg/dL
  RALB: 2.5 g/dL
  TBIL: 0.062 mg/dL
  TC: 77.2 mg/dL
  TG: 31 mg/dL
  TP: 5.2 g/dL
  gamma-GTP: 1 IU/L
9 h
  TERMINAL_BW: 195.5 g
  APTT: 16.9 s
  Bas: 0%
  Eos: 0.8%
  Fbg: 303.8 mg/dL
  Hb: 13 g/dL
  Ht: 40.5%
  Lym: 77.4%
  MCH: 20.6 pg
  MCHC: 32.2%
  MCV: 63.9 fL
  Mono: 2.6%
  Neu: 18.4%
  PT: 13.4 s
  Plat: 124.4 x10_4/uL
  RBC: 634.4 x10_4/ul
  Ret: 8.3%
  WBC: 71.6 x10_2/uL
  KIDNEY_L: 0.9 g
  KIDNEY_R: 0.9 g
  KIDNEY_TOTAL: 1.8 g
  LIVER: 7.9 g
  A/G: 0.9
  ALP: 1274 IU/L
  ALT: 35.8 IU/L
  AST: 68.4 IU/L
  BUN: 8 mg/dL
  CRE: 0.2 mg/dL
  Ca: 10.6 mg/dL
  Cl: 105 meq/L
  DBIL: 0 mg/dL
  GLC: 178.2 mg/dL
  IP: 10 mg/dL
  K: 3.9 meq/L
  LDH: 64.2 IU/L
  Na: 141.6 meq/L
  PL: 150.4 mg/dL
  RALB: 2.5 g/dL
  TBIL: 0.058 mg/dL
  TC: 85.4 mg/dL
  TG: 61.6 mg/dL
  TP: 5.3 g/dL
  gamma-GTP: 1 IU/L
24 h
  TERMINAL_BW: 213.3 g
  APTT: 17.6 s
  Bas: 0%
  Eos: 1%
  Fbg: 286.2 mg/dL
  Hb: 13.4 g/dL
  Ht: 41%
  Lym: 76.4%
  MCH: 20.9 pg
  MCHC: 32.7%
  MCV: 63.9 fL
  Mono: 2.6%
  Neu: 19.2%
  PT: 13 s
  Plat: 114.1 x10_4/uL
  RBC: 641.4 x10_4/ul
  Ret: 7.9%
  WBC: 97.3 x10_2/uL
  KIDNEY_L: 0.9 g
  KIDNEY_R: 0.9 g
  KIDNEY_TOTAL: 1.9 g
  LIVER: 10.2 g
  A/G: 0.9
  ALP: 1382.4 IU/L
  ALT: 44.6 IU/L
  AST: 74 IU/L
  BUN: 14.4 mg/dL
  CRE: 0.2 mg/dL
  Ca: 10.9 mg/dL
  Cl: 105.4 meq/L
  DBIL: 0.008 mg/dL
  GLC: 170.8 mg/dL
  IP: 8.3 mg/dL
  K: 4.1 meq/L
  LDH: 57.8 IU/L
  Na: 142.6 meq/L
  PL: 140.8 mg/dL
  RALB: 2.6 g/dL
  TBIL: 0.056 mg/dL
  TC: 72.6 mg/dL
  TG: 76.2 mg/dL
  TP: 5.5 g/dL
  gamma-GTP: 1 IU/L
